From patent publication US20080261895A1 (Wyeth, priority 2006, published 2008)
Several values for one entry are separate records, joined by “and”; a condition that tells them apart may be missing. Equal values may be shown once.

Assays:
[1] = Urinary excretion and metabolite profile by radiochromatography, rats; assay type: in vivo, Sprague Dawley rats; conditions: for Compounds Detected by Radiochromatography in urine (Mean ± S.D., n = 3), percent of total peaks: single oral 20 mg/kg
Procedure: (§1) Urine and feces were collected separately on dry ice from three animals per sex. Collections were from 0-8 and 8-24 hours for male rats and 0-8 hours for female rats. Fecal samples were homogenized in approximately five volumes (v/w) of water. Aliquots of approximately 0.4 grams of the homogenate were placed into combusto-cones, weighed and allowed to air dry. These samples were then oxidized. The remaining urine samples and fecal homogenates were stored at −70° C. until metabolite analysis.
All urine samples were analyzed for metabolite profiles. Aliquots of 0.5 mL urine were centrifuged at 3500 rpm and 4° C. in a Sorvall Super 21 centrifuge for 10 minutes. The supernatant was transferred to a fresh tube and analyzed for radioactivity content and by HPLC for profiling. Selected samples were also analyzed by LC/MS to characterize the radioactive peaks.
(§2) Chromatographic analyses were performed with a Waters Alliance model 2690 HPLC system (Waters Corp., Milford, Mass.). It was equipped with a built-in autosampler and was in-line with a model 2487 tunable UV detector, set to monitor 225 nm, and a FloOne β Model 525 radioactivity flow detector (Perkin Elmer) with a 250 μL LQTR flow cell. The flow rate of Ultima Flow M scintillation fluid was 1 mL/min, providing a mixing ratio of scintillation cocktail to mobile phase of 5:1. Separation of the metabolite peaks was accomplished on a Phenomenex Luna C18(2) column, 150×2.0 mm, 5 micron (Phenomenex, Torrance, Calif.), using a linear gradient of two mobile phases, A and B. Mobile phase A was 10 mM ammonium acetate, pH 6.0, and mobile phase B was acetonitrile. The flow rate was 0.2 mL/min.

[2] = Metabolites of DVS observed by LC/MS in dog plasma, urine and feces; assay type: in vivo, beagle dogs; conditions: P: plasma, U: urine, F: feces
Procedure: An Agilent Model 1100 HPLC system (Agilent Technologies, Wilmington, Del.) including an autosampler and diode array UV detector was used for LC/MS analysis. The UV detector was set to monitor 200 to 400 nm. Separations were accomplished on a 5 micron Phenomenex Luna C18(2) column, 150×2 mm (Phenomenex). The column temperature was 25° C. For selected LC/MS analyses, radiochromatograms were acquired using a β-RAM model 3 radioactivity flow detector (IN/US Systems Inc., Tampa, Fla.) equipped with a solid scintillation flow cell.
The mass spectrometers used for metabolite characterization were a Micromass Q-TOF-2 quadrupole time-of-flight hybrid mass spectrometer (Micromass, Inc., Beverly, Mass.) and a Finnigan LCQ Deca ion trap mass spectrometer (ThermoFinnigan, San Jose, Calif.). The mass spectrometer was equipped with an electrospray ionization (ESI) interface and operated in the positive ionization mode.

[3] = Plasma metabolite profile by radiochromatography, rats; assay type: in vivo, Sprague Dawley rats; conditions: single oral 20 mg/kg DVS
Procedure: Plasma samples collected at 1, 4 and 8 hours post-dose were analyzed for metabolite profiles. Aliquots of 0.5 mL plasma were mixed with an equal volume of acetonitrile, placed on ice for approximately 10 minutes, and then centrifuged at 3500 rpm and 4° C. in a Sorvall Super 21 centrifuge for 10 minutes. The supernatant fluid was transferred to a clean tube. The supernatant was analyzed for radioactivity. The supernatant was concentrated under a stream of nitrogen in a Turbo Vap (Zymark, Hopinkton, Mass.) to remove the acetonitrile. An aliquot of the aqueous residue was analyzed by HPLC for metabolite profiling. Selected samples were also analyzed by LC/MS to characterize the radioactive peaks.
as §2

[4] = Urinary excretion and metabolite profile by radiochromatography, dogs; assay type: in vivo, beagle dogs; conditions: urine 8-24 hours post-dose, single oral 30 mg/kg, mean of 2 analyses, 30 mg/kg
Procedure: (§3) For each dog, urine and feces were collected separately, with urine collected on dry ice and feces collected at room temperature. Collections were from 0-8 and 8-24 hours for urine and 0-24 hours for feces. Urine and fecal samples were shipped on dry ice to Wyeth Research, Biotransformation Division (Collegeville, Pa.) for analysis. Fecal samples were homogenized in approximately five volumes (v/w) of water. Aliquots of approximately 0.2 grams of the homogenate were placed into combusto-cones, weighed and allowed to air dry. These samples were then oxidized and radioactivity content determined. The remaining urine samples and fecal homogenates were stored at −70° C. until metabolite analysis. Blood samples and fecal homogenates were oxidized in a Model 307 Tri-Carb sample oxidizer, using Carbosorb® E (6 mL) as trapping agent and PermaFluor® E^+ (10 mL) as scintillant. The background reading (average of control blood or fecal samples) was subtracted from each sample reading. Aliquots of urine and plasma were analyzed directly following the addition of 10 mL of Ultima Gold™ scintillation fluid.
Urine samples collected between 8 and 24 hours post-dose were analyzed for metabolite profiles. Aliquots of urine were centrifuged at 14000 rpm in an Eppendorf Model 5415C centrifuge for 10 minutes. The supernatant was transferred to a fresh tube and analyzed for radioactivity content and by HPLC for metabolite profiling. Selected samples were also analyzed by LC/MS to characterize the radioactive peaks.
as §2, with “β Model 515 radioactivity flow” for “β Model 525 radioactivity flow”, “fluid was 3 mL/min, providing” for “fluid was 1 mL/min, providing”, “phase of 3:1. Separation of” for “phase of 5:1. Separation of”, “C18(2) column, 250×4.6 mm, 5” for “C18(2) column, 150×2.0 mm, 5”, “acetate, pH 5.5, and mobile” for “acetate, pH 6.0, and mobile”, “rate was 1 mL/min.” for “rate was 0.2 mL/min.”

[5] = Plasma metabolite profile by radiochromatography, dogs; assay type: in vivo, beagle dogs; conditions: single oral 30 mg/kg DVS
Procedure: Plasma samples collected at 1 and 4 hours post-dose were analyzed for metabolite profiles. Aliquots of 1 mL plasma were mixed with an equal volume of acetonitrile, placed on ice for at least 10 minutes, and then centrifuged at 14000 rpm in an Eppendorf Model 5415C centrifuge for 10 minutes. The supernatant fluid was transferred to a clean tube. The supernatant was analyzed for radioactivity. The supernatant was concentrated under a stream of nitrogen in a Turbo Vap (Zymark, Hopinkton, Mass.) to remove the acetonitrile. An aliquot of the aqueous residue was analyzed by HPLC for profiling. Selected samples were also analyzed by LC/MS to characterize the radioactive peaks.
Chromatographic analyses were performed with a Waters Alliance model 2690 HPLC system (Waters Corp., Milford, Mass.). It was equipped with a built-in autosampler and was in-line with a model 2487 tunable UV detector, set to monitor 225 nm, and a FloOne β Model 515 radioactivity flow detector (Perkin Elmer) with a 250 μL LQTR flow cell. The flow rate of Ultima Flow M scintillation fluid was 3 mL/min, providing a mixing ratio of scintillation cocktail to mobile phase of 3:1. […]

[6] = Metabolites of DVS observed by LC/MS in rat plasma, urine and feces; assay type: in vivo, Sprague Dawley rats; conditions: P: plasma, U: urine, F: feces
Procedure: An Agilent Model 1100 HPLC system (Agilent Technologies, Wilmington, Del.) including an autosampler and diode array UV detector was used for LC/MS analysis. The UV detector was set to monitor 200 to 400 nm. Separations were accomplished on a 5 micron Phenomenex Luna C18(2) column, 150×2 mm (Phenomenex). The column temperature was 25° C. The mobile phases and gradient program were as follows.
The mass spectrometer used for metabolite characterization was a Micromass Q-TOF-2 quadrupole time-of-flight hybrid mass spectrometer (Micromass, Inc., Beverly, Mass.). The mass spectrometer was equipped with an electrospray ionization (ESI) interface and operated in the positive ionization mode.

[7] = Fecal excretion and metabolite profile by radiochromatography, dogs; assay type: in vivo, beagle dogs; conditions: single oral 30 mg/kg; for Compounds Detected by Radiochromatography in feces, percent of total peaks, individual dogs: feces 0-24 hours post dose (dog 7 until 48 hours), average of 2 analyses; for Compounds Detected by Radiochromatography in feces, percent of total peaks, Mean ± S.D.: feces 0-24 hours post dose
Procedure: as §3
Fecal homogenates collected up to 24 hours post-dose were analyzed for metabolite profiles. Aliquots of approximately 2 grams of fecal homogenate were transferred to a fresh tube, an equal volume of acetonitrile (v/w) was added, and the tube vortexed. Samples were then centrifuged at 14000 rpm in an Eppendorf Model 5415C centrifuge for 10 minutes. The supernatant was transferred to a clean tube. The residue was re-suspended with 1 mL acetonitrile and centrifuged as described above. The resulting supernatant was combined with the original supernatant and analyzed for radioactivity. The supernatants were then concentrated under a stream of nitrogen in a Turbo Vap to remove the acetonitrile. An aliquot of the aqueous residue was analyzed by HPLC for profiling. Selected samples were also analyzed by LC/MS to characterize the radioactive peaks.
as §2, with “β Model 515 radioactivity flow” for “β Model 525 radioactivity flow”, “fluid was 3 mL/min, providing” for “fluid was 1 mL/min, providing”, “phase of 3:1. Separation of” for “phase of 5:1. Separation of”, “C18(2) column, 250×4.6 mm, 5” for “C18(2) column, 150×2.0 mm, 5”, “acetate, pH 5.5, and mobile” for “acetate, pH 6.0, and mobile”, “rate was 1 mL/min.” for “rate was 0.2 mL/min.”

[8] = Fecal excretion and metabolite profile by radiochromatography, rats; assay type: in vivo, Sprague Dawley rats; conditions: male rats, feces 8-24 hours post-dose, single oral 20 mg/kg, 20 mg/kg
Procedure: as §1
Fecal homogenates collected from male rats between 8 and 24 hours post-dose were analyzed for metabolite profiles. Aliquots of approximately 1 gram of fecal homogenate were centrifuged at 3500 rpm and 4° C. in a Sorvall Super 21 centrifuge for 10 minutes. The supernatant was transferred to a clean tube. The residue was re-suspended with 1 mL of water:acetonitrile (1:1, v:v) and centrifuged as described above. The resulting supernatant was combined with the original supernatant and the residue re-suspended with 1 mL of acetonitrile. The suspension was centrifuged as described above, and the supernatants were combined and analyzed for radioactivity. The supernatants were then concentrated under a stream of nitrogen in a Turbo Vap to remove the acetonitrile. An aliquot of the aqueous residue was analyzed by HPLC for profiling. Selected samples were also analyzed by LC/MS to characterize the radioactive peaks.
as §2

SMILES | Matrix (metabolite observed by LC/MS) [2] | Compounds Detected by Radiochromatography in urine, percent of total peaks, individual dogs [4] | Matrix (metabolite observed by LC/MS) [6] | Compounds Detected by Radiochromatography in feces, percent of total peaks, individual dogs [7] | Compounds Detected by Radiochromatography in feces, percent of total peaks, Mean ± S.D. [8] | Compounds Detected by Radiochromatography in feces, percent of total peaks, Mean ± S.D. [7] | further results
CN(C)CC(c1ccc(O[C@@H]2O[C@H](C(=O)O)[C@@H](O)[C@H](O)[C@H]2O)cc1)C1(O)CCCCC1 (some centres unmarked) [Metabolite M7, O-desmethylvenlafaxine O-glucuronide] | P, U, F | 84.1% and 83.5% and 83.9% and 86.8% | P, U, F | – | – | – | % of the radioactivity detected in urine ([1]; all urine samples at each time point): approximately 75%; Compounds Detected by Radiochromatography in urine (Mean ± S.D., n = 3), percent of total peaks ([1]; 0-8 hr, female): 74.0 ± 3.3%; Compounds Detected by Radiochromatography in urine (Mean ± S.D., n = 3), percent of total peaks ([1]; 0-8 hr, male): 76.5 ± 1.9%; Compounds Detected by Radiochromatography in urine (Mean ± S.D., n = 3), percent of total peaks ([1]; 8-24 hr, male): 77.2 ± 1.2%; % of the radioactivity in plasma ([3]; female rats, 1 hour post-dose): 86.6%; % of the radioactivity in plasma ([3]; male rats, 1 hour post-dose): 88.7%; % of the radioactivity in plasma ([3]; male rats, 4 hours post-dose): 93.6%; % of the radioactivity detected in plasma ([5]; 1 hour post-dose): 77.5%; % of the radioactivity detected in plasma ([5]; 4 hours post-dose): 96.4%
CN(C)CC(O)(c1ccc(O)cc1)C1(O)CCCCC1 (centres unmarked) [Metabolite M9, Hydroxy DV] | U, F | – | – | – | – | – | –

Second part, led by results:

Matrix (metabolite observed by LC/MS) [2] | Compounds Detected by Radiochromatography in urine, percent of total peaks, individual dogs [4] | Matrix (metabolite observed by LC/MS) [6] | Compounds Detected by Radiochromatography in feces, percent of total peaks, individual dogs [7] | Compounds Detected by Radiochromatography in feces, percent of total peaks, Mean ± S.D. [8] | Compounds Detected by Radiochromatography in feces, percent of total peaks, Mean ± S.D. [7] | SMILES | further results
P, U, F | – | P, U, F | 9.8% and 17.7% and 8.6% and 11.2% | 34% and 33.6 ± 0.9% | – | CNCC(c1ccc(O)cc1)C1(O)CCCCC1 (centres unmarked) [Metabolite M10, N,O-didesmethylvenlafaxine] | Compounds Detected by Radiochromatography in feces, percent of total peaks, individual rats [8]: 34.5% and 32.6% and 33.6%
P, U | 3.3% and 3.5% and 4.3% and 3.6% | P, U | – | – | – | CNCC(c1ccc(O[C@@H]2O[C@H](C(=O)O)[C@@H](O)[C@H](O)[C@H]2O)cc1)C1(O)CCCCC1 (some centres unmarked) [Metabolite M13, N,O-didesmethylvenlafaxine O-glucuronide] | –
U, F | – | – | 4.4% and 16.1% and 0.0% (2×) | – | 5.1 ± 7.0% | NCC(c1ccc(O)cc1)C1(O)CCCCC1 (centres unmarked) [Metabolite M14, N,N,O-tridesmethylvenlafaxine] | –
P, U, F | – | P, U, F^b | 7.3% and 15.7% and 5.7% and 0.0% | 7% | approximately 7% | C[N+](C)([O-])CC(c1ccc(O)cc1)C1(O)CCCCC1 (centres unmarked) [N-oxide DV] | Compounds Detected by Radiochromatography in feces, percent of total peaks, Mean ± S.D. ([7]; listed as N-Oxide): 7.2 ± 6.1%; Compounds Detected by Radiochromatography in feces, percent of total peaks, Mean ± S.D. ([8]; listed as N-Oxide): 7.1 ± 1.3%; Compounds Detected by Radiochromatography in feces, percent of total peaks, individual rats ([8]; listed as N-Oxide): 6.0% and 6.7% and 8.5%
